Reference: patent publication US20240067693A1, “POLYPEPTIDES AND USES THEREOF” (MEDIMMUNE LIMITED, priority 2020, published 2024)
Numbered stars: 1 amine (or outer) side, 2 acyl side, 3 side chain; on linkers, the order of the positions; unused ones are H or OH. Bridge positions count the residues as written; N and C are the ends. Square brackets hold non-standard residues; d marks the D form. Side chains are listed from the residue outwards. Peptide text beside a SMILES is read from it. * marks the point of attachment. C18 diacid = O=C(O)CCCCCCCCCCCCCCCCC(=O)*; γGlu = O=C(O)[C@H](CCC(=O)[*:2])N[*:1]; Aib = CC(C)(N)C(=O)O

Tests used:
[1] = target: T1, human amylin receptor (calcitonin receptor co-expressed with receptor activity modifying protein, RAMP3) (hAMYR3) (Homo sapiens, UniProt O60896+P30988); test: cAMP production in 1321N1 cells with stable recombinant expression of human amylin receptor (hAMYR3); format: cell-based; settings: for Ratio (selectivity hAMYR vs hCTR, ratio of EC50 values at the two receptors): EC50 hCTR / EC50 hAMYR3; for EC50: cAMP, 1321N1 cells, assay buffer with 0.1% BSA, read-out: EC50 (pM) hAMYR3
T1 construct: expressed in transfected cells
T1 sequence (P30988 25-474): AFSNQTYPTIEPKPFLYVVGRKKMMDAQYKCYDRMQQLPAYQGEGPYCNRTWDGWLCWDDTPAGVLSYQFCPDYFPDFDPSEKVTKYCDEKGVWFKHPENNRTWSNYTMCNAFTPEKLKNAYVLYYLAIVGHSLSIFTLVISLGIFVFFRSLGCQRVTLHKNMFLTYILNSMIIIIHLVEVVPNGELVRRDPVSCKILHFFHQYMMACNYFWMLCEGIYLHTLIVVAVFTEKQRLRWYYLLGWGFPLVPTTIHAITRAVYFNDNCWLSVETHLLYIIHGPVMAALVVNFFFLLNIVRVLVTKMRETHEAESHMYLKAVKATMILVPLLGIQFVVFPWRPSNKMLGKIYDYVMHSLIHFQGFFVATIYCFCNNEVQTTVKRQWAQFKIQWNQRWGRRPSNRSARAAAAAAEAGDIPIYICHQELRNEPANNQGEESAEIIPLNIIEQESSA
T1 sequence (O60896 24-148 partner): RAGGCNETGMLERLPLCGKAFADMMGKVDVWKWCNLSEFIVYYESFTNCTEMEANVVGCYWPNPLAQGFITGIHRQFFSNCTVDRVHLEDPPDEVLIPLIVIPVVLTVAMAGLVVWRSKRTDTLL
Procedure, shortened: (§1)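 EC50 values come from 4-parameter logistic fits of HTRF cAMP signal, normalised to maximal calcitonin or amylin effect. Peptides were tested in duplicate for 30 min at RT in IBMX-containing (0.5 mM) BSA/HEPES buffer pH 7.4 on stable 1321N1 (human CTR, AMYR3) or HEK (rat CTR, AMYR3) lines.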

[2] = target: T2, human calcitonin receptor (hCTR) (Homo sapiens, UniProt P30988); test: cAMP production in 1321N1 cells with stable recombinant expression of human calcitonin receptor (hCTR); format: cell-based; settings: cAMP, 1321N1 cells, assay buffer with 0.1% BSA; read-out: EC50 (pM) hCTR
T2 construct: expressed in transfected cells
T2 sequence (P30988 25-474): T1 sequence (P30988 25-474)
Procedure, shortened: as §1

Row | Ratio (selectivity hAMYR vs hCTR, ratio of EC50 values at the two receptors) [1] | EC50 [1] | EC50 [2] | SMILES
1 | 20.5 | 737 pM | 15100 pM | CC[C@H](C)[C@H](NC(=O)[C@@H]1CCCN1C(=O)CNC(=O)[C@H](Cc1ccccc1)NC(=O)[C@H](CC(N)=O)NC(=O)[C@H](Cc1c[nH]cn1)NC(=O)[C@H](CO)NC(=O)[C@H](CO)NC(=O)[C@H](Cc1c[nH]cn1)NC(=O)C(C)(C)NC(=O)[C@H](CC(C)C)NC(=O)[C@H](Cc1ccccc1)NC(=O)[C@H](CC(N)=O)NC(=O)[C@H](C)NC(=O)[C@H](CC(C)C)NC(=O)[C@H](CCCNC(=N)N)NC(=O)[C@H](CCC(N)=O)NC(=O)[C@@H](NC(=O)[C@H](C)NC(=O)[C@@H]1CSSC[C@H](NC(=O)[C@H](CCCCN)NC(=O)[C@@H](N)CCCCNC(=O)CC[C@H](NC(=O)CCCCCCCCCCCCCCCCC(=O)O)C(=O)O)C(=O)N[C@@H](CC(N)=O)C(=O)N[C@@H]([C@@H](C)O)C(=O)N[C@@H](C)C(=O)N[C@@H]([C@@H](C)O)C(=O)N1)[C@@H](C)O)C(=O)N[C@@H](CC(C)C)C(=O)N1CCC[C@H]1C(=O)N1CCC[C@H]1C(=O)N[C@H](C(=O)N[C@@H](CC(N)=O)C(=O)N[C@H](C(=O)NCC(=O)N[C@@H](CO)C(=O)N[C@@H](CC(N)=O)C(=O)N[C@H](C(=O)N[C@@H](Cc1ccc(O)cc1)C(N)=O)[C@@H](C)O)C(C)C)[C@@H](C)O [Peptide 131] (H-K([γGlu-C18 diacid])KCNTATCATQRLANFL[Aib]HSSHNFGPILPPTNVGSNTY-NH2; disulfide 3-8)
2 | 9.3 | 416 pM | 3850 pM | CC[C@H](C)[C@H](NC(=O)[C@@H]1CCCN1C(=O)CNC(=O)[C@H](Cc1ccccc1)NC(=O)[C@H](CC(N)=O)NC(=O)[C@@H]1CCCN1C(=O)[C@H](CO)NC(=O)[C@H](CO)NC(=O)[C@H](Cc1c[nH]cn1)NC(=O)C(C)(C)NC(=O)[C@H](CC(C)C)NC(=O)[C@H](Cc1ccccc1)NC(=O)[C@H](CC(N)=O)NC(=O)[C@H](C)NC(=O)[C@H](CC(C)C)NC(=O)[C@H](CCCNC(=N)N)NC(=O)[C@H](CCC(N)=O)NC(=O)[C@@H](NC(=O)[C@H](C)NC(=O)[C@@H]1CSSC[C@H](NC(=O)[C@H](CCCCN)NC(=O)[C@@H](N)CCCCNC(=O)CC[C@H](NC(=O)CCCCCCCCCCCCCCCCC(=O)O)C(=O)O)C(=O)N[C@@H](CC(N)=O)C(=O)N[C@@H]([C@@H](C)O)C(=O)N[C@@H](C)C(=O)N[C@@H]([C@@H](C)O)C(=O)N1)[C@@H](C)O)C(=O)N[C@@H](CC(C)C)C(=O)N1CCC[C@H]1C(=O)N1CCC[C@H]1C(=O)N[C@H](C(=O)N[C@@H](CC(N)=O)C(=O)N[C@H](C(=O)NCC(=O)N[C@@H](CO)C(=O)N[C@@H](CC(N)=O)C(=O)N[C@H](C(=O)N[C@@H](Cc1ccc(O)cc1)C(N)=O)[C@@H](C)O)C(C)C)[C@@H](C)O [Peptide 132] (H-K([γGlu-C18 diacid])KCNTATCATQRLANFL[Aib]HSSPNFGPILPPTNVGSNTY-NH2; disulfide 3-8)
3 | 6.8 | 378 pM | 2580 pM | CC[C@H](C)[C@H](NC(=O)[C@@H]1CCCN1C(=O)CNC(=O)[C@H](Cc1ccccc1)NC(=O)[C@H](CC(N)=O)NC(=O)[C@H](CO)NC(=O)[C@H](CO)NC(=O)[C@H](CO)NC(=O)[C@H](Cc1c[nH]cn1)NC(=O)C(C)(C)NC(=O)[C@H](CC(C)C)NC(=O)[C@H](Cc1ccccc1)NC(=O)[C@H](CC(N)=O)NC(=O)[C@H](C)NC(=O)[C@H](CC(C)C)NC(=O)[C@H](CCCNC(=N)N)NC(=O)[C@H](CCC(N)=O)NC(=O)[C@@H](NC(=O)[C@H](C)NC(=O)[C@@H]1CSSC[C@H](NC(=O)[C@H](CCCCN)NC(=O)[C@@H](N)CCCCNC(=O)CC[C@H](NC(=O)CCCCCCCCCCCCCCCCC(=O)O)C(=O)O)C(=O)N[C@@H](CC(N)=O)C(=O)N[C@@H]([C@@H](C)O)C(=O)N[C@@H](C)C(=O)N[C@@H]([C@@H](C)O)C(=O)N1)[C@@H](C)O)C(=O)N[C@@H](CC(C)C)C(=O)N1CCC[C@H]1C(=O)N1CCC[C@H]1C(=O)N[C@H](C(=O)N[C@@H](CC(N)=O)C(=O)N[C@H](C(=O)NCC(=O)N[C@@H](CO)C(=O)N[C@@H](CC(N)=O)C(=O)N[C@H](C(=O)N[C@@H](Cc1ccc(O)cc1)C(N)=O)[C@@H](C)O)C(C)C)[C@@H](C)O [Peptide 133] (H-K([γGlu-C18 diacid])KCNTATCATQRLANFL[Aib]HSSSNFGPILPPTNVGSNTY-NH2; disulfide 3-8; N-terminus assumed)
4 | 7.9 | 281 pM | 2220 pM | CC[C@H](C)[C@H](NC(=O)[C@@H]1CCCN1C(=O)CNC(=O)[C@H](Cc1ccccc1)NC(=O)[C@H](CC(N)=O)NC(=O)[C@H](CC(N)=O)NC(=O)[C@H](CO)NC(=O)[C@H](CO)NC(=O)[C@H](Cc1c[nH]cn1)NC(=O)C(C)(C)NC(=O)[C@H](CC(C)C)NC(=O)[C@H](Cc1ccccc1)NC(=O)[C@H](CC(N)=O)NC(=O)[C@H](C)NC(=O)[C@H](CC(C)C)NC(=O)[C@H](CCCNC(=N)N)NC(=O)[C@H](CCC(N)=O)NC(=O)[C@@H](NC(=O)[C@H](C)NC(=O)[C@@H]1CSSC[C@H](NC(=O)[C@H](CCCCN)NC(=O)[C@@H](N)CCCCNC(=O)CC[C@H](NC(=O)CCCCCCCCCCCCCCCCC(=O)O)C(=O)O)C(=O)N[C@@H](CC(N)=O)C(=O)N[C@@H]([C@@H](C)O)C(=O)N[C@@H](C)C(=O)N[C@@H]([C@@H](C)O)C(=O)N1)[C@@H](C)O)C(=O)N[C@@H](CC(C)C)C(=O)N1CCC[C@H]1C(=O)N1CCC[C@H]1C(=O)N[C@H](C(=O)N1CCC[C@H]1C(=O)N[C@H](C(=O)NCC(=O)N[C@@H](CO)C(=O)N[C@@H](CC(N)=O)C(=O)N[C@H](C(=O)N[C@@H](Cc1ccc(O)cc1)C(N)=O)[C@@H](C)O)C(C)C)[C@@H](C)O [Peptide 134] (H-K([γGlu-C18 diacid])KCNTATCATQRLANFL[Aib]HSSNNFGPILPPTPVGSNTY-NH2; disulfide 3-8; N-terminus assumed)
5 | 1.2 | 296 pM | 345 pM | CC[C@H](C)[C@H](NC(=O)[C@@H]1CCCN1C(=O)CNC(=O)[C@H](Cc1ccccc1)NC(=O)[C@H](Cc1c[nH]cn1)NC(=O)[C@H](CC(N)=O)NC(=O)[C@H](CO)NC(=O)[C@H](CO)NC(=O)[C@H](Cc1c[nH]cn1)NC(=O)C(C)(C)NC(=O)[C@H](CC(C)C)NC(=O)[C@H](Cc1ccccc1)NC(=O)[C@H](CC(N)=O)NC(=O)[C@H](C)NC(=O)[C@H](CC(C)C)NC(=O)[C@H](CCCNC(=N)N)NC(=O)[C@H](CCC(N)=O)NC(=O)[C@@H](NC(=O)[C@H](C)NC(=O)[C@@H]1CSSC[C@H](NC(=O)[C@H](CCCCN)NC(=O)[C@@H](N)CCCCNC(=O)CC[C@H](NC(=O)CCCCCCCCCCCCCCCCC(=O)O)C(=O)O)C(=O)N[C@@H](CC(N)=O)C(=O)N[C@@H]([C@@H](C)O)C(=O)N[C@@H](C)C(=O)N[C@@H]([C@@H](C)O)C(=O)N1)[C@@H](C)O)C(=O)N[C@@H](CC(C)C)C(=O)N1CCC[C@H]1C(=O)N1CCC[C@H]1C(=O)N[C@H](C(=O)N[C@@H](CC(N)=O)C(=O)N[C@H](C(=O)NCC(=O)N[C@@H](CO)C(=O)N[C@@H](CC(N)=O)C(=O)N[C@H](C(=O)N[C@@H](Cc1ccc(O)cc1)C(N)=O)[C@@H](C)O)C(C)C)[C@@H](C)O [Peptide 135] (H-K([γGlu-C18 diacid])KCNTATCATQRLANFL[Aib]HSSNHFGPILPPTNVGSNTY-NH2; disulfide 3-8; N-terminus assumed)
6 | 0.8 | 122 pM | 101 pM | CC[C@H](C)[C@H](NC(=O)[C@@H]1CCCN1C(=O)CNC(=O)[C@H](Cc1ccccc1)NC(=O)[C@H](CC(N)=O)NC(=O)[C@H](CC(N)=O)NC(=O)[C@H](CO)NC(=O)[C@H](CO)NC(=O)[C@H](Cc1c[nH]cn1)NC(=O)C(C)(C)NC(=O)[C@H](CC(C)C)NC(=O)[C@H](Cc1ccccc1)NC(=O)[C@H](CC(N)=O)NC(=O)[C@H](C)NC(=O)[C@H](CC(C)C)NC(=O)[C@H](CCCNC(=N)N)NC(=O)[C@H](CCC(N)=O)NC(=O)[C@@H](NC(=O)[C@H](C)NC(=O)[C@@H]1CSSC[C@H](NC(=O)[C@H](CCCCN)NC(=O)[C@@H](N)CCCCNC(=O)CC[C@H](NC(=O)CCCCCCCCCCCCCCCCC(=O)O)C(=O)O)C(=O)N[C@@H](CC(N)=O)C(=O)N[C@@H]([C@@H](C)O)C(=O)N[C@@H](C)C(=O)N[C@@H]([C@@H](C)O)C(=O)N1)[C@@H](C)O)C(=O)N[C@@H](CC(C)C)C(=O)N1CCC[C@H]1C(=O)N1CCC[C@H]1C(=O)N[C@H](C(=O)N[C@@H](CC(N)=O)C(=O)N[C@H](C(=O)NCC(=O)N[C@@H](CO)C(=O)N[C@@H](CC(N)=O)C(=O)N[C@H](C(=O)N1CCC[C@H]1C(N)=O)[C@@H](C)O)C(C)C)[C@@H](C)O [Peptide 136] (H-K([γGlu-C18 diacid])KCNTATCATQRLANFL[Aib]HSSNNFGPILPPTNVGSNTP-NH2; disulfide 3-8; N-terminus assumed)
